Results reported in PubChem BioAssay (NCI).
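Compound exposure: 48 hours, 5 concentrations, 96-well plates. GI50 is the concentration that inhibits growth by half. TGI marks complete inhibition of growth.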

Experiments:
Test in all cases: DTP human tumour cell line panel, 48 h
[1] = test system: CAKI-1 renal
[2] = test system: 786-0 renal
[3] = test system: T-47D breast
[4] = test system: NCI/ADR-RES ovarian
[5] = test system: OVCAR-4 ovarian
[6] = test system: HOP-92 NSCLC
[7] = test system: NCI-H23 lung
[8] = test system: SK-MEL-2 melanoma
[9] = test system: NCI-H522 lung
[10] = test system: SK-MEL-5 melanoma
[11] = test system: MCF7 breast
[12] = test system: HS 578T breast
[13] = test system: A549 NSCLC
[14] = test system: SW-620 colon
[15] = test system: RPMI-8226 leukemia
[16] = test system: RXF 393 renal
[17] = test system: K-562 leukemia
[18] = test system: LOX IMVI melanoma
[19] = test system: HL-60(TB) leukemia
[20] = test system: SF-268 CNS
[21] = test system: SNB-19 CNS
[22] = test system: IGROV1 ovarian
[23] = test system: CCRF-CEM leukemia
[24] = test system: HCT-15 colon
[25] = test system: SK-MEL-28 melanoma
[26] = test system: BT-549 breast
[27] = test system: SNB-75 CNS
[28] = test system: HOP-62 NSCLC
[29] = test system: DU-145 prostate
[30] = test system: A498 renal
[31] = test system: SK-OV-3 ovarian
[32] = test system: UACC-257 melanoma
[33] = test system: UO-31 renal
[34] = test system: MDA-MB-231 breast
[35] = test system: HT29 colon
[36] = test system: SN12C renal
[37] = test system: KM12 colon
[38] = test system: HCT-116 colon
[39] = test system: OVCAR-8 ovarian
[40] = test system: OVCAR-5 ovarian
[41] = test system: MOLT-4 leukemia
[42] = test system: HCC-2998 colon
[43] = test system: NCI-H226 lung
[44] = test system: PC-3 prostate
[45] = test system: COLO 205 colon
[46] = test system: SR leukemia
[47] = test system: U251 CNS
[48] = test system: OVCAR-3 ovarian
[49] = test system: SF-295 CNS
[50] = test system: TK-10 renal
[51] = test system: NCI-H460 lung
[52] = test system: M14 melanoma
[53] = test system: ACHN renal
[54] = test system: MDA-MB-435
[55] = test system: UACC-62 melanoma
[56] = test system: SF-539 CNS
[57] = test system: EKVX NSCLC

COC(=O)[C@H]1[C@@H](O)[C@@]2(O)c3c(OC)cc(OC)cc3O[C@@]2(c2ccc(OC)cc2)[C@@H]1c1ccccc1
GI50 [1]: 28.5 nM
TGI [1]: 2720 nM
GI50 [2]: 45.1 nM
TGI [2]: 267 nM
GI50 [3]: 7.22 nM
TGI [3]: 103 nM
GI50 [4]: 19.8 nM
TGI [4]: 101 nM
GI50 [5]: 26.6 nM
TGI [5]: 659 nM
GI50 [6]: 48 nM
TGI [6]: 3890 nM
GI50 [7]: 15.5 nM
TGI [7]: 146 nM
GI50 [8]: 29.2 nM
TGI [8]: 89.6 nM
GI50 [9]: 17 nM
TGI [9]: 106 nM
GI50 [10]: 18.2 nM
TGI [10]: 81.4 nM
GI50 [11]: 6.7 nM
TGI [11]: 231 nM
GI50 [12]: 44.2 nM
TGI [12]: 1280 nM
GI50 [13]: 8.57 nM
TGI [13]: 177 nM
GI50 [14]: 9.12 nM
TGI [14]: 2320 nM
GI50 [15]: 19.2 nM
TGI [15]: 339 nM
GI50 [16]: 10.5 nM
TGI [16]: 78.2 nM
GI50 [17]: 9.61 nM
TGI [17]: 6820 nM
GI50 [18]: 11.5 nM
TGI [18]: 75.9 nM
GI50 [19]: 18.3 nM
TGI [19]: 108 nM
GI50 [20]: 25.6 nM
TGI [20]: 492 nM
GI50 [21]: 16.2 nM
TGI [21]: 716 nM
GI50 [22]: 20.7 nM
TGI [22]: 1340 nM
GI50 [23]: 14.7 nM
TGI [23]: 5690 nM
GI50 [24]: 10.9 nM
TGI [24]: 447 nM
GI50 [25]: 26.1 nM
TGI [25]: 277 nM
GI50 [26]: 39.9 nM
TGI [26]: 213 nM
GI50 [27]: 42.9 nM
TGI [27]: 1250 nM
GI50 [28]: 11.8 nM
TGI [28]: 101 nM
GI50 [29]: 17.3 nM
TGI [29]: 207 nM
GI50 [30]: 10 nM
TGI [30]: 48.5 nM
GI50 [31]: 11.9 nM
TGI [31]: 231 nM
GI50 [32]: 44.8 nM
TGI [32]: 143 nM
GI50 [33]: < 17.2 nM
TGI [33]: 129 nM
GI50 [34]: 32.8 nM
TGI [34]: 132 nM
GI50 [35]: 7.13 nM
TGI [35]: 93.5 nM
GI50 [36]: 19 nM
TGI [36]: 214 nM
GI50 [37]: < 10.5 nM
TGI [37]: 757 nM
GI50 [38]: 10.2 nM
TGI [38]: 179 nM
GI50 [39]: 32.7 nM
TGI [39]: 408 nM
GI50 [40]: 40.3 nM
TGI [40]: 1030 nM
GI50 [41]: 6.22 nM
TGI [41]: 488 nM
GI50 [42]: 8.33 nM
TGI [42]: 205 nM
GI50 [43]: 11.8 nM
TGI [43]: 260 nM
GI50 [44]: 18.6 nM
TGI [44]: 6250 nM
GI50 [45]: 15.3 nM
TGI [45]: 52 nM
GI50 [46]: 14.2 nM
TGI [46]: 16700 nM
GI50 [47]: 23.8 nM
TGI [47]: 749 nM
GI50 [48]: 22.3 nM
TGI [48]: 304 nM
GI50 [49]: 14.1 nM
TGI [49]: 126 nM
GI50 [50]: 45.5 nM
TGI [50]: 166 nM
GI50 [51]: 5.37 nM
TGI [51]: 653 nM
GI50 [52]: 11.9 nM
TGI [52]: 52.2 nM
GI50 [53]: 10.2 nM
TGI [53]: 166 nM
GI50 [54]: 12.1 nM
TGI [54]: 626 nM
GI50 [55]: 38.3 nM
TGI [55]: 569 nM
GI50 [56]: 7.9 nM
TGI [56]: 72 nM
GI50 [57]: 20.6 nM
TGI [57]: 360 nM
